Assays:
[1] = system: FLT3-ITD mutant isoforms; assay: Immunoblotting with anti-phospho-FLT3 / anti-FLT3 on Ba/F3 lysates (cell-based biochemical assay); conditions: five AC220-resistant FLT3-ITD substitutions; 90 minutes exposure
Description: Exponentially growing Ba/F3 cells stably expressing each mutant along with a WT FLT3-ITD control were plated in RPMI medium 1640+10% FCS supplemented with kinase inhibitor at the indicated concentration. After a 90-minute incubation, the cells were washed in phosphate buffered saline (PBS) and lysed in Cell Extraction Buffer (Invitrogen) supplemented with protease and phosphatase inhibitors. The lysate was clarified by centrifugation and quantitated by BCA assay (Thermo Scientific). Protein was subjected to sodium dodecylsulfate polyacrylamide electrophoresis and transferred to nitrocellulose membranes. Immunoblotting was performed using anti-phospho-FLT3 (Cell Signaling) and anti-FLT3 S18 antibody (Santa Cruz Biotechnology).

[2] = system: Ba/F3 cells expressing FLT3-ITD mutant isoforms; assay: Cell-viability assay of Ba/F3 populations stably expressing FLT3-ITD mutant isoforms; format: cell-based; conditions: 48 hours
Description: Stable Ba/F3 lines were generated by using retroviral spinfection with the appropriate mutated plasmid as outlined above, with the exception of the exclusion of polybrene. At 48 h post-infection, puromycin was added to infected cells at a concentration of 4 μg/mL. Cells were selected in the presence of puromycin for 7-10 days and subsequently IL-3 was washed twice from the cells with media and cells were selected in RPMI medium 1640+10% FCS in the absence of IL-3. Exponentially growing BaiF3 cells (5×10^4) were plated in each well of a 24-well dish with 1 ml of RPMI 1640+10% FCS containing the appropriate concentration of drug as indicated in triplicate. Cells were allowed to expand for 2 days and were counted by using a Vi-cell XR automated cell viability analyzer (Beckman Coulter). The mean number of viable cells at varying concentrations of drug was normalized to the median number of viable cells in the no-drug sample for each mutant. Error bars represent the standard deviation. Numerical IC50 values were generated using non-linear best-fit regression analysis using Prism 5 software (GraphPad).

[3] = system: Ba/F3 cells expressing FLT3-ITD mutant isoforms; conditions: literature report (ref 18); cited from earlier work

## CNC(=O)c1cc(Oc2ccc(NC(=O)Nc3ccc(Cl)c(C(F)(F)F)c3)cc2)ccn1 [sorafenib]
[1]
  cross-resistance of AC220-resistant mutations in biochemical assay (phospho-FLT3): substantial cross-resistance
[2]; FLT3-ITD/D835F vs FLT3-ITD
  resistance conferred by D835F mutation in vitro: cross-resistance
[2]; five AC220-resistant FLT3-ITD substitutions
  cross-resistance of AC220-resistant mutations in cell-based growth assay: substantial cross-resistance
[3]
  sensitivity of FLT3-ITD/D835V in vitro, previously reported: retain sensitivity

From patent US20140242590A1, “FLT3 MUTATIONS ASSOCIATED WITH DRUG RESISTANCE IN AML PATIENTS HAVING ACTIVATING MUTATIONS IN FLT3” (THE REGENTS OF THE UNIVERSITY OF CALIFORNIA, priority 2011, published 2014)
